Experimental data reported in patent US20080221193A1, “3-AMINO CHROMANE DERIVATIVES” (Wyeth, priority 2006, published 2008).

Tests used:
human 5-HT1A receptors [1] = molecular target: T1, human 5-HT1A receptors (Homo sapiens, UniProt P08908); assay: 8-OH-DPAT binding in CHO cells stably transfected with human 5HT1a receptor; conditions: displacement of [3H]8-OH-DPAT, CHO cells with human 5-HT1A; read-out: 5-HT1A Receptor Affinity Ki
T1 construct: expressed in transfected cells; host or cells: CHO cells, stably transfected
T1 sequence (P08908 1-422): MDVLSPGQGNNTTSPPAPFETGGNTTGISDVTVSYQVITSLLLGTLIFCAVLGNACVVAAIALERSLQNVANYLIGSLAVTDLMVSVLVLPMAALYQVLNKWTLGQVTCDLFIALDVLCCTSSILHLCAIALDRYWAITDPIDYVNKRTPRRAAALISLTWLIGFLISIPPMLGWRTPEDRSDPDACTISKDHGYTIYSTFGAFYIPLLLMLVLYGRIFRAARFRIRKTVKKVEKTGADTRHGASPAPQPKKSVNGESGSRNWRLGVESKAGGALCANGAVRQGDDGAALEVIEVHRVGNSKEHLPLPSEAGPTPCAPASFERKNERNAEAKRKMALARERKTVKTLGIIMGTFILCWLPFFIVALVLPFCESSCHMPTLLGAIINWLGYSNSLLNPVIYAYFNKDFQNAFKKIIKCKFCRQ
Protocol: High affinity for the serotonin 5-HT1A receptor was established by testing the claimed compound's ability to displace [^3H] 8-OH-DPAT (dipropylaminotetralin) from the 5-HT1A serotonin receptor following a modification of the procedure of Hall et al., (J. Neurochem., 1985, 44: 1685) which utilizes CHO cells stably transfected with human 5-HT1A receptors.
Stabily transfected CHO cells were grown in DMEM containing 10% heat inactivated FBS and non-essential amino acids. Cells were scraped off the plate, transferred to centrifuge tubes, and washed twice by centrifugation (2000 rpm for 10 min., 4° C.) in buffer (50 mM Tris pH 7.5). The resulting pellets were aliquoted and placed at −80° C. On day of assay, the cells were thawed on ice, and resuspended in buffer. The binding assay was performed in a 96 well microtiter plate in a total volume of […].
Non-specific binding was determined in the presence of […] 5HT, final ligand concentration is 1.5 nM. Following a 30 minute incubation at room temperature, the reaction was terminated by the addition of ice cold buffer and rapid filtration through a GF/B filter presoaked for 30 minutes in 0.5% PEI. Compounds were initially tested in a single point assay to determine percent inhibition at […]. Subsequently, Ki values were determined for compounds defined to be active.

h5HT1a receptor = molecular target: T2, h5HT1a receptor (Homo sapiens, UniProt P08908); assay: cAMP RIA in CHO cells stably transfected with the h5HT1a receptor; assay type: cell-based; conditions: for EC50: agonist, forskolin-stimulated cAMP, read-out: 5-HT1A Function cAMP EC50; for IC50: antagonist, reversal of agonist 8-OH-DPAT, read-out: 5-HT1A Function cAMP IC50
T2 construct: expressed in transfected cells; host or cells: CHO cells, stably transfected
T2 sequence (P08908 1-422): T1 sequence (P08908 1-422)
Text: (§1) The agonist or antagonist activity at 5-HT1A receptors was established by using two different assays. The ^35S-GTPγS binding assay similar to that used by Lazareno and Birdsall (Br. J. Pharmacol., 1993, 109: 1120) was used to determine the test compound's ability to affect the binding of ^35S-GTPγS to membranes containing cloned human 5-HT1A receptors. Agonists produce an increase in binding whereas antagonists produce no increase but rather reverse the effects of the standard agonist 8-OH-DPAT. The test compound's maximum stimulatory effect is represented as the Emax, while its potency is defined by the EC50. The test compound's maximum inhibitory effect is represented as the Imax, while its potency is defined by the IC50. The second assay measured cAMP accumulation upon binding of the ligand to the 5-HT1A receptor. Antagonists block the effect of the standard agonist 8-OH-DPAT resulting in an increase in cAMP accumulation while agonists have the reverse effect. The test compound's maximum stimulatory or inhibitory effect is represented as the Emax while its potency is defined by either IC50 for an antagonist or EC50 for an agonist. [^3H]-8-OH-DPAT was used to determine maximum agonist or antagonist response in both functional assays.
Stabily transfected CHO cells were grown in DMEM containing 10% heat inactivated FBS and non-essential amino acids. The cells were plated at a density of 10(6) cells per well in a 24 well plate and incubated for 2 days in a CO2 incubator. On the second day, the media was replaced with 0.5 ml treatment buffer (DMEM+25 mM HEPES, 5 mM theophylline, 10 uM pargyline) and incubated 10 minutes at 37° C.
Wells were treated with forskolin (1 μM final conc) followed immediately by test compound (0.1 and 1 uM for initial screen) and incubated for an additional 10 min at 37° C. The reaction was terminated by removal of the media and addition of 0.5 ml ice cold assay buffer (supplied in RIA kit). Plates were stored at −20° C. prior to assessment of cAMP formation by RIA.
Compounds shown to have no agonist activities were further analyzed for ability to reverse agonist activity. In separate experiments, 6 concentrations of antagonist were preincubated for 20 minutes prior to the addition of agonist and forskolin. Cells were harvested as described. The cAMP kit was supplied by Amersham and the RIA was performed as per kit instructions.

human 5-HT1A receptors [2] = molecular target: T1, human 5-HT1A receptors; assay: 35S-GTPγS binding assay, membranes containing cloned human 5-HT1A receptors; assay type: biochemical; conditions: read-out: 5-HT1A Function GTPγS IC50
Text: as §1

h5-HT Transporter = h5-HT Transporter (Homo sapiens, UniProt P31645); assay: h5-HT Transporter Function (Table 1); assay type: biochemical
Sequence of h5-HT Transporter (P31645 whole entry): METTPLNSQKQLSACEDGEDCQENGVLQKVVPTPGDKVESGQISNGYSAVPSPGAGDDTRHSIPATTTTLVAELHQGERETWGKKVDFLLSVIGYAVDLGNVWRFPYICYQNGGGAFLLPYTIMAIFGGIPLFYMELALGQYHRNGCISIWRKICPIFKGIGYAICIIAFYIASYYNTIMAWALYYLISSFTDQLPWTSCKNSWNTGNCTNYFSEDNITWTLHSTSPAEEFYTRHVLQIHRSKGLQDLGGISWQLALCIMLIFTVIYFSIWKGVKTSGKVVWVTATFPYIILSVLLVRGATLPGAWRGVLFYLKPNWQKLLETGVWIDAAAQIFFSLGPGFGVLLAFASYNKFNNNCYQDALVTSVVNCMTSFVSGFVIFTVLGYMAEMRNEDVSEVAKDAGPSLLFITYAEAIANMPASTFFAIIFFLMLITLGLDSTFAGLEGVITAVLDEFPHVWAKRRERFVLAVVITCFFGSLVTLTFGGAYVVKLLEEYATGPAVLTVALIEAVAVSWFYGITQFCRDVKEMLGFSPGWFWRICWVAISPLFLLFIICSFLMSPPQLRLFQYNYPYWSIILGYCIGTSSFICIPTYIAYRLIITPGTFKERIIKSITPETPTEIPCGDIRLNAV

Compound	Ki (human 5-HT1A receptors [1]) [nM]	EC50 (h5HT1a receptor) [nM]	IC50 (human 5-HT1A receptors [2]) [nM]	IC50 (h5-HT Transporter) [nM]	IC50 (h5HT1a receptor) [nM]
CNC(=O)c1ccc(OC)c2c1C[C@@H](N(CCCc1c[nH]c3ccc(F)cc13)C1CCC1)CO2 [Example 16, (3R)-3-{cyclobutyl[3-(5-fluoro-1H-indol-3-yl)propyl]amino}-8-methoxychromane-5-methylcarboxamide]	570	323	738	55	
CSc1ccc(C(N)=O)c2c1OC[C@H](N(CCCc1c[nH]c3ccc(F)cc13)C1CCC1)C2 [Example 22, (3R)-3-{cyclobutyl[3-(5-fluoro-1H-indol-3-yl)propyl]amino}-8-(methylthio)chromane-5-carboxamide]	16.9		1180	364	59.8
CNc1ccc(C(N)=O)c2c1OC[C@H](N(CCCc1c[nH]c3ccc(F)cc13)C1CCC1)C2 [Example 25, (3R)-3-{cyclobutyl[3-(5-fluoro-1H-indol-3-yl)propyl]amino}-8-(methylamino)-chromane-5-carboxamide]	51.5		3550	137	140

Now those with a lower Ki (human 5-HT1A receptors [1]), led by results:

Ki (human 5-HT1A receptors [1]) [nM]	EC50 (h5HT1a receptor) [nM]	IC50 (human 5-HT1A receptors [2]) [nM]	IC50 (h5-HT Transporter) [nM]	IC50 (h5HT1a receptor) [nM]	Compound
4.26	51.8	311	52.2		Cc1ccc(C(N)=O)c2c1OC[C@H](N(CCCc1c[nH]c3ccc(F)cc13)C1CCC1)C2 [Example 20, (3R)-3-{cyclobutyl[3-(5-fluoro-1H-indol-3-yl)propyl]amino}-8-methylchromane-5-carboxamide]
5.93	15.6	724	90.4		CCc1ccc(C(N)=O)c2c1OC[C@H](N(CCCc1c[nH]c3ccc(F)cc13)C1CCC1)C2 [Example 21, (3R)-3-{cyclobutyl[3-(5-fluoro-1H-indol-3-yl)propyl]amino}-8-ethylchromane-5-carboxamide]
